Assays:
[1] = logP determination by HPLC on reverse-phase column (C 18), EEC Directive 79/831 Annex V.A8; type: physicochemical; details: reverse-phase C18 HPLC column; pH 2.3; HPLC reverse-phase C 18; 43° C.; 0.1% aqueous phosphoric acid/acetonitrile gradient
Description: The determination of the logP values given in the tables and Preparation Examples above is carried out in accordance with EEC Directive 79/831 Annex V.A8 by HPLC (High Performance Liquid Chromatography) on a reverse-phase column (C 18). Temperature: 43° C.
The determination is carried out in the acidic range at pH 2.3 using the mobile phases 0.1% aqueous phosphoric acid and acetonitrile; linear gradient from 10% acetonitrile to 90% acetonitrile.
Calibration is carried out using unbranched alkan-2-ones (of 3 to 16 carbon atoms) with known logP values (determination of the logP values by the retention times using linear interpolation between two successive alkanones).

Venturia inaequalis = assay: Venturia Test (Apple)/Protective; type: in vivo; details: 240 h, protective spray, application rate 10 g/ha, evaluation 10 days after inoculation, 100% = no infection, read-out: % efficacy
Description: Venturia Test (Apple)/Protective
(§1) To produce a suitable preparation of active compound, 1 part by weight of active compound is mixed with the stated amounts of solvents and emulsifier, and the concentrate is diluted with water to the desired concentration.
To test for protective activity, young plants are sprayed with the preparation of active compound at the stated application rate. After the spray coating has dried on, the plants are inoculated with an aqueous conidia suspension of the apple scab pathogen Venturia inaequalis and then remain in an incubation cabin at about 20° C. and 100% relative atmospheric humidity for 1 day.
The plants are then placed in a greenhouse at about 21° C. and a relative atmospheric humidity of about 90%.
Evaluation is carried out 10 days after the inoculation. 0% means an efficacy which corresponds to that of the control, whereas an efficacy of 100% means that no infection is observed.

Botrytis cinerea = assay: Botrytis Test (Bean)/Protective; type: in vivo; details: 48 h, protective spray, application rate 100 g/ha, evaluation 2 days after inoculation, 100% = no infection, read-out: % efficacy
Description: Botrytis Test (Bean)/Protective
as §1
To test for protective activity, young plants are sprayed with the preparation of active compound at the stated application rate. After the spray coating has dried on, 2 small pieces of agar colonized by Botrytis cinerea are placed onto each leaf. The inoculated plants are placed in a dark chamber at about 20° C. and 100% relative atmospheric humidity.
2 days after the inoculation, the size of the infected areas on the leaves is evaluated. 0% means an efficacy which corresponds to that of the control, whereas an efficacy of 100% means that no infection is observed.

Rhizoctonia solani = assay: In vitro test for the ED50 determination of microorganisms; type: cell-based; details: 50% inhibition of fungal growth, tested at 0.1, 1, 10 and 100 ppm, 22° C., 3-5 days, photometric 620 nm
Description: (§2) In Vitro Test for the ED50 Determination of Microorganisms
(§3) A methanolic solution of the active compound to be tested, mixed with the emulsifier PS16, is pipetted into the wells of microtiter plates. After the solvent has evaporated, 200 μl of potato/dextrose medium are added to each well.
(§4) Beforehand, a suitable concentration of spores or mycelium of the fungus to be tested was added to the medium.
(§5) The resulting concentrations of active compound are 0.1, 1, 10 and 100 ppm. The resulting concentration of the emulsifier is 300 ppm.
(§6) The plates are then incubated on a shaker at a temperature of 22° C. for 3-5 days, until sufficient growth can be observed in the untreated control.
(§7) Evaluation is carried out photometrically at a wavelength of 620 nm. The dose of active compound which causes a 50% inhibition of fungal growth compared to the untreated control (ED50) is calculated from the data measured at different concentrations.

Septoria tritici = assay: as above; type: cell-based; details: 50% inhibition of fungal growth, tested at 0.1, 1, 10 and 100 ppm, 22° C., 3-5 days, photometric 620 nm
Description: as §2, §3, §4, §5, §6, §7

SMILES	chromatographic logP [1]	pest or weed control at 10 g/ha (Venturia inaequalis)	pest or weed control at 100 g/ha (Botrytis cinerea)	ED50 (Rhizoctonia solani)	ED50 (Septoria tritici)
Cc1nc(C(F)F)c(C(=O)Nc2ccccc2-c2ccc(F)c(Cl)c2)s1 [Example 1, N-(3′-chloro-4′-fluoro-1,1′-biphenyl-2-yl)-2-methyl-4-(difluoromethyl)-1,3-thiazole-5-carboxamide]	3.28				
Cc1nc(C(F)F)c(C(=O)Nc2ccccc2-c2ccc(Br)cc2)s1 [Example 2]	3.47	100%	100%		
Cc1nc(C(F)F)c(C(=O)Nc2ccccc2-c2ccc(C(F)(F)F)cc2)s1 [Example 3]	3.52	100%	100%	< 0.1 ppm	0.36 ppm
Cc1nc(C(F)F)c(C(=O)Nc2ccccc2-c2cccc(Cl)c2)s1 [Example 4]	3.37	100%	100%	< 0.1 ppm	0.45 ppm
Cc1nc(C(F)F)c(C(=O)Nc2ccccc2-c2ccc(OC(F)(F)F)cc2)s1 [Example 5]	3.72	87%	79%	< 0.1 ppm	0.25 ppm
CSc1ccc(-c2ccccc2NC(=O)c2sc(C)nc2C(F)F)cc1 [Example 6]	3.39	99%	94%	3.25 ppm	3.51 ppm
Cc1nc(C(F)F)c(C(=O)Nc2ccccc2-c2ccc(F)cc2)s1 [Example 7]	3.09	100%	94%	0.48 ppm	0.68 ppm
Cc1nc(C(F)F)c(C(=O)Nc2ccccc2-c2ccc(Cl)cc2Cl)s1 [Example 9]	3.58	98%	95%		
Cc1nc(C(F)F)c(C(=O)Nc2ccccc2-c2ccc(Cl)cc2C)s1 [Example 10]	3.77	100%	100%		
Cc1nc(C(F)F)c(C(=O)Nc2ccccc2-c2ccc(Cl)c(F)c2)s1 [Example 11]	3.29	100%	100%		
Cc1nc(C(F)F)c(C(=O)Nc2ccccc2-c2ccc(C)c(Cl)c2)s1 [Example 12]	3.62	100%	100%		

Source: patent US7388097B2, “Difluoromethyl thiazolyl carboxanilides” (Bayer CropScience AG, priority 2002, dated 2008)
